{"source": "ChEMBL document CHEMBL3885881", "about": "“DrugMatrix”", "organism": "Rattus norvegicus", "assay": "DrugMatrix - Regimen: Daily Repeat", "assay_type": "toxicity, organism-based, Sprague-Dawley", "set-up": "regimen Daily Repeat, gender Male, age 6-8 weeks", "settings": "in vivo, po, 1200 mg/kg, route oral GAVAGE, dose level High, vehicle .5 % CMC; for ABSOLUTE BASOPHIL / ABSOLUTE EOSINOPHIL / ABSOLUTE LYMPHOCYTE / ABSOLUTE MONOCYTE / ABSOLUTE SEGMENTED NEUTROPHIL / BASOPHIL / EOSINOPHIL / ERYTHROCYTE COUNT / HEMATOCRIT / HEMOGLOBIN / LEUKOCYTE COUNT / LYMPHOCYTE / MEAN CORPUSCULAR HEMOGLOBIN / MEAN CORPUSCULAR HEMOGLOBIN CONCENTRATION / MEAN CORPUSCULAR VOLUME / MONOCYTE / NEUTROPHIL / NUCLEATED RED BLOOD CELLS / PLATELET COUNT: tissue Blood; for ALANINE AMINOTRANSFERASE / ALBUMIN / ALKALINE PHOSPHATASE / ASPARTATE AMINOTRANSFERASE / BLOOD UREA NITROGEN / CARBON DIOXIDE / CHLORIDE / CHOLESTEROL / CREATINE PHOSPHOKINASE / CREATININE / GLUCOSE / LACTATE DEHYDROGENASE / LIPASE / PHOSPHORUS / POTASSIUM / SODIUM / TOTAL BILIRUBIN / TOTAL PROTEIN / URIC ACID: tissue Plasma"}
{"compound": "CC(C)c1nc(CN(C)C(=O)N[C@H](C(=O)N[C@@H](Cc2ccccc2)C[C@H](O)[C@H](Cc2ccccc2)NC(=O)OCc2cncs2)C(C)C)cs1", "note": "[RITONAVIR]", "values": [{"measurement": "ABSOLUTE BASOPHIL", "setting": "72 h, time 3 day", "result": 0, "unit": "CELLS/uL"}, {"measurement": "ABSOLUTE EOSINOPHIL", "setting": "72 h, time 3 day", "result": 142.67, "unit": "CELLS/uL"}, {"measurement": "ABSOLUTE LYMPHOCYTE", "setting": "72 h, time 3 day", "result": 15572, "unit": "CELLS/uL"}, {"measurement": "ABSOLUTE MONOCYTE", "setting": "72 h, time 3 day", "result": 334, "unit": "CELLS/uL"}, {"measurement": "ABSOLUTE SEGMENTED NEUTROPHIL", "setting": "72 h, time 3 day", "result": 651.33, "unit": "CELLS/uL"}, {"measurement": "BASOPHIL", "setting": "72 h, time 3 day", "result": 0, "unit": "%"}, {"measurement": "EOSINOPHIL", "setting": "72 h, time 3 day", "result": 0.67, "unit": "%"}, {"measurement": "ERYTHROCYTE COUNT", "setting": "72 h, time 3 day", "result": 5.91, "unit": "x10E6/uL"}, {"measurement": "HEMATOCRIT", "setting": "72 h, time 3 day", "result": 36.97, "unit": "%"}, {"measurement": "HEMOGLOBIN", "setting": "72 h, time 3 day", "result": 14.63, "unit": "G/DL"}, {"measurement": "LEUKOCYTE COUNT", "setting": "72 h, time 3 day", "result": 16.7, "unit": "x10E3/uL"}, {"measurement": "LYMPHOCYTE", "setting": "72 h, time 3 day", "result": 93.67, "unit": "%"}, {"measurement": "MEAN CORPUSCULAR HEMOGLOBIN", "setting": "72 h, time 3 day", "result": 24.77, "unit": "pg"}, {"measurement": "MEAN CORPUSCULAR HEMOGLOBIN CONCENTRATION", "setting": "72 h, time 3 day", "result": 39.6, "unit": "G/DL"}, {"measurement": "MEAN CORPUSCULAR VOLUME", "setting": "72 h, time 3 day", "result": 62.53, "unit": "fL"}, {"measurement": "MONOCYTE", "setting": "72 h, time 3 day", "result": 2, "unit": "%"}, {"measurement": "NEUTROPHIL", "setting": "72 h, time 3 day", "result": 3.67, "unit": "%"}, {"measurement": "NUCLEATED RED BLOOD CELLS", "setting": "72 h, time 3 day", "result": "0 /100WBC"}, {"measurement": "PLATELET COUNT", "setting": "72 h, time 3 day", "result": 1284, "unit": "x10E3/uL"}, {"measurement": "ALANINE AMINOTRANSFERASE", "setting": "72 h, time 3 day", "result": 50, "unit": "u/L"}, {"measurement": "ALBUMIN", "setting": "72 h, time 3 day", "result": 3.97, "unit": "G/DL"}, {"measurement": "ALKALINE PHOSPHATASE", "setting": "72 h, time 3 day", "result": 314, "unit": "u/L"}, {"measurement": "ASPARTATE AMINOTRANSFERASE", "setting": "72 h, time 3 day", "result": 75, "unit": "u/L"}, {"measurement": "BLOOD UREA NITROGEN", "setting": "72 h, time 3 day", "result": 13.67, "unit": "mg/dL"}, {"measurement": "CARBON DIOXIDE", "setting": "72 h, time 3 day", "result": 31.67, "unit": "mmol/L"}, {"measurement": "CHLORIDE", "setting": "72 h, time 3 day", "result": 100.33, "unit": "MEQ/L"}, {"measurement": "CHOLESTEROL", "setting": "72 h, time 3 day", "result": 86.67, "unit": "mg/dL"}, {"measurement": "CREATINE PHOSPHOKINASE", "setting": "72 h, time 3 day", "result": 162.33, "unit": "u/L"}, {"measurement": "CREATININE", "setting": "72 h, time 3 day", "result": 0.16, "unit": "mg/dL"}, {"measurement": "GLUCOSE", "setting": "72 h, time 3 day", "result": 153.67, "unit": "mg/dL"}, {"measurement": "LACTATE DEHYDROGENASE", "setting": "72 h, time 3 day", "result": 134.67, "unit": "u/L"}, {"measurement": "LIPASE", "setting": "72 h, time 3 day", "result": 10.33, "unit": "u/L"}, {"measurement": "PHOSPHORUS", "setting": "72 h, time 3 day", "result": 11.4, "unit": "mg/dL"}, {"measurement": "POTASSIUM", "setting": "72 h, time 3 day", "result": 5.99, "unit": "MEQ/L"}, {"measurement": "SODIUM", "setting": "72 h, time 3 day", "result": 144.87, "unit": "MEQ/L"}, {"measurement": "TOTAL BILIRUBIN", "setting": "72 h, time 3 day", "result": 0.2, "unit": "mg/dL"}, {"measurement": "TOTAL PROTEIN", "setting": "72 h, time 3 day", "result": 5.67, "unit": "G/DL"}, {"measurement": "URIC ACID", "setting": "72 h, time 3 day", "result": 1.33, "unit": "mg/dL"}, {"measurement": "ABSOLUTE BASOPHIL", "setting": "120 h, time 5 day", "result": 0, "unit": "CELLS/uL"}, {"measurement": "ABSOLUTE EOSINOPHIL", "setting": "120 h, time 5 day", "result": 0, "unit": "CELLS/uL"}, {"measurement": "ABSOLUTE LYMPHOCYTE", "setting": "120 h, time 5 day", "result": 16888.67, "unit": "CELLS/uL"}, {"measurement": "ABSOLUTE MONOCYTE", "setting": "120 h, time 5 day", "result": 206.67, "unit": "CELLS/uL"}, {"measurement": "ABSOLUTE SEGMENTED NEUTROPHIL", "setting": "120 h, time 5 day", "result": 871.33, "unit": "CELLS/uL"}, {"measurement": "BASOPHIL", "setting": "120 h, time 5 day", "result": 0, "unit": "%"}, {"measurement": "EOSINOPHIL", "setting": "120 h, time 5 day", "result": 0, "unit": "%"}, {"measurement": "ERYTHROCYTE COUNT", "setting": "120 h, time 5 day", "result": 6.28, "unit": "x10E6/uL"}, {"measurement": "HEMATOCRIT", "setting": "120 h, time 5 day", "result": 37.7, "unit": "%"}, {"measurement": "HEMOGLOBIN", "setting": "120 h, time 5 day", "result": 14.77, "unit": "G/DL"}, {"measurement": "LEUKOCYTE COUNT", "setting": "120 h, time 5 day", "result": 17.97, "unit": "x10E3/uL"}, {"measurement": "LYMPHOCYTE", "setting": "120 h, time 5 day", "result": 94, "unit": "%"}, {"measurement": "MEAN CORPUSCULAR HEMOGLOBIN", "setting": "120 h, time 5 day", "result": 23.53, "unit": "pg"}, {"measurement": "MEAN CORPUSCULAR HEMOGLOBIN CONCENTRATION", "setting": "120 h, time 5 day", "result": 39.17, "unit": "G/DL"}, {"measurement": "MEAN CORPUSCULAR VOLUME", "setting": "120 h, time 5 day", "result": 60.2, "unit": "fL"}, {"measurement": "MONOCYTE", "setting": "120 h, time 5 day", "result": 1, "unit": "%"}, {"measurement": "NEUTROPHIL", "setting": "120 h, time 5 day", "result": 5, "unit": "%"}, {"measurement": "NUCLEATED RED BLOOD CELLS", "setting": "120 h, time 5 day", "result": "0 /100WBC"}, {"measurement": "PLATELET COUNT", "setting": "120 h, time 5 day", "result": 1230, "unit": "x10E3/uL"}, {"measurement": "ALANINE AMINOTRANSFERASE", "setting": "120 h, time 5 day", "result": 59.67, "unit": "u/L"}, {"measurement": "ALBUMIN", "setting": "120 h, time 5 day", "result": 4, "unit": "G/DL"}, {"measurement": "ALKALINE PHOSPHATASE", "setting": "120 h, time 5 day", "result": 219, "unit": "u/L"}, {"measurement": "ASPARTATE AMINOTRANSFERASE", "setting": "120 h, time 5 day", "result": 104.67, "unit": "u/L"}, {"measurement": "BLOOD UREA NITROGEN", "setting": "120 h, time 5 day", "result": 16, "unit": "mg/dL"}, {"measurement": "CARBON DIOXIDE", "setting": "120 h, time 5 day", "result": 22.33, "unit": "mmol/L"}, {"measurement": "CHLORIDE", "setting": "120 h, time 5 day", "result": 106, "unit": "MEQ/L"}, {"measurement": "CHOLESTEROL", "setting": "120 h, time 5 day", "result": 79, "unit": "mg/dL"}, {"measurement": "CREATINE PHOSPHOKINASE", "setting": "120 h, time 5 day", "result": 482, "unit": "u/L"}, {"measurement": "CREATININE", "setting": "120 h, time 5 day", "result": 0.24, "unit": "mg/dL"}, {"measurement": "GLUCOSE", "setting": "120 h, time 5 day", "result": 155.33, "unit": "mg/dL"}, {"measurement": "LACTATE DEHYDROGENASE", "setting": "120 h, time 5 day", "result": 180.33, "unit": "u/L"}, {"measurement": "LIPASE", "setting": "120 h, time 5 day", "result": 10.67, "unit": "u/L"}, {"measurement": "PHOSPHORUS", "setting": "120 h, time 5 day", "result": 10.5, "unit": "mg/dL"}, {"measurement": "POTASSIUM", "setting": "120 h, time 5 day", "result": 7.89, "unit": "MEQ/L"}, {"measurement": "SODIUM", "setting": "120 h, time 5 day", "result": 148.6, "unit": "MEQ/L"}, {"measurement": "TOTAL BILIRUBIN", "setting": "120 h, time 5 day", "result": 0.17, "unit": "mg/dL"}, {"measurement": "TOTAL PROTEIN", "setting": "120 h, time 5 day", "result": 6.03, "unit": "G/DL"}, {"measurement": "URIC ACID", "setting": "120 h, time 5 day", "result": 1.8, "unit": "mg/dL"}]}
